The results in this text go back to PubChem BioAssay (NCI).

What all share (test): growth of human tumour cells (NCI), 48 h
In experiment [1] the test system is HCT-116 colon.
Experiment [2] has as its system HT29 colon.
The subject of experiment [3] is IGROV1 ovarian.
The subject of experiment [4] is OVCAR-8 ovarian.
Experiment [5] deals with RPMI-8226 leukemia.
The subject of experiment [6] is SK-MEL-28 melanoma.
Experiment [7] has as its system SN12C renal.
Experiment [8] has as its system SNB-19 CNS.
In experiment [9] the test system is TK-10 renal.
The test system of experiment [10] is UACC-62 melanoma.

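Briefly, cells in 96-well plates were exposed to five compound concentrations for 48 h, and endpoints were estimated by linear interpolation. GI50 is the concentration that inhibits growth by half. TGI: concentration producing complete growth inhibition.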

In the case of `CCOC(=O)N1C2C=C(C)C(C3C(C)C(=O)N31)N(C(=O)c1ccccc1)O2` (stereo not given), the TGI in [1], in experiment [2], in experiment [3], in experiment [4], in [5] and in [6] was above 100 µM each time. In addition, the TGI in experiment [7], in [8], in experiment [9] and in [10] was above 100 µM in each case.
Regarding `Fc1ccc(Nc2nc(NCCNc3ccnc4cc(Cl)ccc34)nc(N3CCOCC3)n2)cc1`, the GI50 in experiment [1] is 4.82 µM; in experiment [2] it was 2.27 µM; in experiment [3] it was 6.3 µM; in experiment [4], 11.6 µM; in experiment [5], 3.15 µM; in experiment [6], 1.83 µM. Further, the GI50 in experiment [7] was 11.6 µM; in [8], 12.4 µM; in experiment [9] it was 10.3 µM; in experiment [10], 2.65 µM. The TGI worked out at 17 µM in experiment [1]; 5.77 µM in [2]; 21.4 µM in experiment [3]; 40.6 µM in experiment [4]; 14.6 µM in [5]; 3.25 µM in experiment [6]. Also, the TGI in [7] was 25 µM; in experiment [8], 25.9 µM; in experiment [9] it was 22.7 µM; in experiment [10], 7.35 µM.
As to `Clc1ccc(CN2COc3c(cc(Cl)c4cccnc34)C2)cc1`, the TGI in experiment [1] turned out to be 5.49 µM; in experiment [2] it was 24.7 µM; in [3] it was 8 µM; in experiment [4] it was 5.05 µM; in experiment [5] it was 3.42 µM; in [6] it was 7.38 µM. Besides, the TGI in experiment [7] worked out at 15.6 µM; in [8], 16 µM; in [9], 13.4 µM; in experiment [10], 4.11 µM.
Regarding `C[C@H](CS(C)(=O)=O)Nc1ncc2cc(Oc3ccc(F)cc3F)c(=O)n(C)c2n1`, the GI50 in experiment [1], in [2], in experiment [3], in experiment [4], in [5] and in [6] was above 25 µM throughout. For the same molecule, the GI50 in experiment [7], in [8], in experiment [9] and in [10] was above 25 µM throughout. The TGI in experiment [1], in [2], in experiment [3], in experiment [4], in [5] and in experiment [6] was above 25 µM in each case. For the same molecule, the TGI in experiment [7], in experiment [8], in experiment [9] and in experiment [10] was above 25 µM each time.
For `Cn1cc(-c2ccc(CNc3cc(-c4cnc5cc(OCCCN6CCCC6)ccn45)ncn3)cc2)cn1`, the GI50 in [1] was 1.57 µM; in [2], 1.33 µM; in experiment [3] it was 2.05 µM; in experiment [4] it was 1.81 µM; in experiment [5] it was 2.15 µM; in experiment [6], 1.65 µM. Besides, the GI50 is 1.82 µM in experiment [7], 2.5 µM in [8], 23.7 µM in experiment [9] and 13.2 µM in experiment [10]. In addition, the TGI in [1] turned out to be 2.98 µM; in experiment [2], 2.72 µM; in [3] it was 4.27 µM; in [4], 3.61 µM; in experiment [5], 5.55 µM; in experiment [6] it was 3.17 µM. Further, the TGI in [7] is 3.61 µM; in experiment [8] it was 8.43 µM; in experiment [9] it was 39.1 µM; in experiment [10], 29.2 µM.
Take `CC(C)OC(=O)c1ccc2[nH]c(O)c(C(=Nc3ccc(N(C)C(=O)CN4CCN(C)CC4)cc3)c3ccccc3)c2c1`: the GI50 in experiment [1] was 0.149 µM; in experiment [2] it was 0.28 µM; in experiment [3], 0.0764 µM; in experiment [4] it was 0.622 µM; in experiment [5], 0.385 µM; in [6], 1.15 µM. For the same molecule, the GI50 is 0.0977 µM in [7], 0.921 µM in [8], 0.561 µM in experiment [9] and 1.32 µM in experiment [10]. In addition, the TGI in experiment [1] came to 1.28 µM; in [2], 3.83 µM; in [3], 1.24 µM; in [4], 3.17 µM; in experiment [5], 1.79 µM; in [6], 2.52 µM. The TGI came to 1.6 µM in [7], 2.33 µM in experiment [8], 2.52 µM in [9] and 3.01 µM in experiment [10].
On to `CC1=CC(=O)C(C(C)=Nc2ccccc2Cl)C(=O)O1` (stereo not given), for which the GI50 in [1] was above 100 µM; in experiment [2] it was above 100 µM; in [3], 76.2 µM; in [4] it was above 100 µM; in experiment [5], above 100 µM; in experiment [6], above 100 µM. The GI50 in experiment [7], in experiment [8], in experiment [9] and in [10] was above 100 µM in each case. In addition, the TGI in [1], in experiment [2], in experiment [3], in [4], in experiment [5] and in experiment [6] was above 100 µM in each case. In addition, the TGI in experiment [7], in [8], in experiment [9] and in experiment [10] was above 100 µM in each case.
In the case of `CCOC(=O)c1cnn(-c2ccnc3c(C(F)(F)F)cccc23)c1N`, the GI50 in experiment [1] was above 100 µM; in [2] it was above 100 µM; in [3] it was above 100 µM; in experiment [4], above 100 µM; in experiment [5] it was 98.4 µM; in experiment [6], above 100 µM. Further, the GI50 in [7], in experiment [8], in experiment [9] and in experiment [10] was above 100 µM throughout. Moreover, the TGI in experiment [1], in experiment [2], in [3], in [4], in experiment [5] and in experiment [6] was above 100 µM throughout. Further, the TGI in experiment [7], in experiment [8], in experiment [9] and in experiment [10] was above 100 µM in each case.
